Legend:
[1] = Hydrolysis kinetics in rat liver homogenates; format: in vitro ADME
Description: Livers were obtained from male Wistar rats, which were sacrificed by decapitation, after a slight isoflurane anesthesia. The livers were immediately isolated, and, after washing with ice-cold saline solution, they were homogenized in 4 volumes (w/v) of Tris HCl (50 mM, pH 7.4, 4 °C) by using a Potter–Elvehjem apparatus. The supernatant obtained after centrifugation (2000× g for 10 min at 4 °C) was decanted off and stored at −80 °C before its use for kinetic studies.
Kinetic analysis of Fer-Ger was performed by its incubation at 37 °C in 3 mL of rat liver or brain homogenates at 30 µM (9.92 µg/mL) final concentration. At defined time intervals, 100 μL of homogenates were withdrawn and immediately treated by quenching them in EtOH (250 µL), then an internal standard (100 μM carbazole dissolved in EtOH, 50 µL) was added. The samples were centrifuged (13,500× g for 10 min), and the 300 μL aliquots were reduced to dryness under a nitrogen stream. […]
The Fer-Ger degradation in whole blood or homogenates was analyzed as exponential decay plots of its concentrations versus incubation time, and the related half-life values were obtained from the linear regression of the corresponding semi-logarithmic plots. The quality of the fits was evaluated by considering the correlation coefficients (r) and p values. […]
Fer-Ger and its hydrolysis product, Ger, were quantified by HPLC. […]

differentiated N2a cells [2] = test: DCFH-DA assay of intracellular ROS production; format: cell-based, mouse
Description: (§1) N2a cells were seeded on T75 flasks and grown in Dulbecco’s Modified Eagle Medium (DMEM) containing Glutamax, supplemented with 100 μg/mL streptomycin, 100 IU/mL penicillin, and 10% fetal bovine serum (FBS) in a humidified 5% CO2 atmosphere at 37 °C. After two passages by trypsinization, cells were seeded at a density of 5 × 10^3 cells/well in 12-well plates with 2 mL of DMEM or at a density of 5 × 10^2 cells/well in 96-well plates with 0.2 mL of DMEM, depending on the study (see below). For neural differentiation, N2a cells were allowed to adhere and proliferate in wells for 4 days; then, after washing once with serum-free DMEM, differentiating medium composed of DMEM containing 1% HS and 20 μM all-trans-retinoic acid (atRA) was added in both the seeding conditions, up to 6 days of differentiation, after which the cells were used for the experiments.
The potential antioxidant effect of Fer-Ger was evaluated according to the original method of Wang and Joseph. In this method, the nonpolar 2′,7′-dichlorofluorescin diacetate (DCFH-DA) enters the intact cells and is hydrolyzed by intracellular esterases to nonfluorescent DCFH carboxylate anion, which remains entrapped and becomes the high fluorescent dichlorofluorescin (DCF) after oxidation by free radicals generated by a stressor, such as H2O2. Therefore, H2O2-induced intracellular ROS production was measured in N2a cells by a florescence intensity assay following exposure to the oxidation-sensitive dye DCFH-DA. N2a cells were seeded at a density of 1 × 10^4 cells/well in a black-coated and clear bottom 96-well plate and neuron-differentiated as reported above. After 6 days, differentiating medium in N2a cells was replaced with pre-warmed phenol-red-free and serum-free DMEM containing 10 µM DCFH-DA and incubated for 30 min in the dark in a humidified 5% CO2 atmosphere at 37 °C. The 10 µM DCFH-DA loading solution was then removed, and the cells were washed twice with fresh phenol-red-free and serum-free DMEM to remove the redundant extracellular DCFH-DA probe. Subsequently, N2a cells were incubated with pre-warmed phenol-red free DMEM containing 1% FBS as an untreated control and with solutions dissolved in phenol-red free DMEM containing 1% FBS of Fer-Ger (1, 5, or 10 µM) or 100 µM ascorbic acid (AA, as an established antioxidant positive control) and incubated for 1 h in a humidified 5% CO2 atmosphere at 37 °C. After this time, 100 µM H2O2 was added in the absence or presence of 1, 5 or 10 µM Fer-Ger or 100 µM AA, and the fluorescence intensity was measured at an excitation wavelength of 485 nm and at an emission wavelength of 530 nm, monitoring the oxidation of DCFH to DCF by the intracellular ROS by running the kinetic over 75 min in a fluorescence microplate reader (VICTOR^3TM 1420 Multilabel counter, PerkinElmer, Milan, Italy). Results were represented as a percentage of intracellular ROS production (100% of control) resulting from the mean values ± SEM of sextuplicate wells over time.

differentiated N2a cells [3] = test: MTT assay of H2O2-altered viability (neuroprotection); format: cell-based, mouse; details: then 100 µM H2O2 for 24 h
Description: as §1
The MTT assay was also carried out to determine the neuroprotective effect of Fer-Ger on H2O2-induced cell oxidative stress in N2a neuronal cells. Briefly, N2a cells (5 × 10^2) were seeded and differentiated into 96-well plates, as reported above. Then, cells were incubated with 1 µM and 5 µM Fer-Ger dissolved in DMEM containing 0.5% HS for 1 h in a humidified 5% CO2 atmosphere at 37 °C. The experimental design therefore included cells incubated with only culture medium as a control and cells incubated for 24 h with 100 µM H2O2 as a damage-inducing agent after 1 h of preincubation in the absence or presence of 1 µM or 5 µM Fer-Ger. Then, 20 μL of MTT (5 mg/mL) was added into the 200 µL of the incubation medium. Four hours later, the medium containing MTT was aspirated and replaced by 100 µL of dimethyl sulfoxide (DMSO) solubilization agent for 1 h at 37 °C in an orbital shaker incubator. Finally, the absorbance of each well was measured at 570 nm using a microtiter plate reader (Sunrise® Microplate Reader, Tecan Trading AG, Männedorf, Switzerland).

[4] = Kinetic analysis (stability) in Tris-HCl buffer; format: physicochemical; details: Tris-HCl buffer pH 7.4 (with MeOH 70:30), 37 °C, three hours, 20 µM
Description: Kinetic analysis of Fer-Ger was performed by its incubation at 20 µM (6.61 µg/mL) final concentration and at 37 °C in 30 mL of a mixture of Tris-HCl buffer 50 mM (pH 7.4) and MeOH 70:30 (v/v). […] All the values were derived from the mean of three independent incubation experiments.
Fer-Ger and its hydrolysis product, Ger, were quantified by HPLC. The chromatographic apparatus consisted of a modular system (model LC-40D) pump and DAD detector (model SPD-M40, Shimadzu, Kyoto, Japan) and an injection valve with a 20 μL sample loop (model 7725; Rheodyne, IDEX, Torrance, CA, USA).

For `COc1cc(/C=C/C(=O)OC/C=C(\C)CCC=C(C)C)ccc1O` [Fer-Ger, Geranyl ferulate], the “time to complete hydrolysis” value [1] was “about 30 min”, the half-life at 30 µM ([1]; male, Wistar, liver homogenate, pH 7.4, 37 °C, 30 µM, pseudo-first-order kinetic) was 3.94 ± 0.33 min and the “effect on basal ROS production” value (differentiated N2a cells [2]; Fer-Ger 1, 5 and 10 µM alone, 75 min) was “did not affect the ROS production”. The “effect on H2O2-induced ROS production” value (differentiated N2a cells [2]; Fer-Ger 1, 5 and 10 µM with 100 µM H2O2, all times tested, p < 0.05) was “increased the H2O2-induced ROS production”, the “prevention of H2O2-induced cell viability damage” value (differentiated N2a cells [3]; 1 µM Fer-Ger preincubated 1 h) was “fully prevented” and the “prevention of H2O2-induced cell viability damage” value (differentiated N2a cells [3]; 5 µM Fer-Ger preincubated 1 h) was “fully prevented”. The “degradation in Tris-HCl buffer” value [4] was “not degraded”.
